# Results taken from US7863446B2, “Heterocycles” (Orchid Research Laboratories Limited, priority 2006, dated 2011).
# Assays:
# [1] = system: TNF-α; test: In vitro measurement of TNF-α in human PBMC (LPS stimulated); type: cell-based; details: for inhibition at 1 µM: NA = No activity, read-out: TNF-α Inhibition (%) at Conc. (1 μM); for inhibition at 10 µM: read-out: TNF-α Inhibition (%) at Conc. (10 μM)
# Experimental: In Vitro Measurement of Tumor Necrosis Factor Alpha (TNF-α)
# This assay determines the effect of test compounds on the production of TNF α in human Peripheral Blood Mononuclear Cells (PBMC). Compounds were tested for their ability to inhibit the activity of TNF α in human PBMC. PBMC were isolated from blood (of healthy volunteers) using BD Vacutainer CPT™ (Cell preparation tube, BD Bio Science) and suspended in RPMI medium (Physiol. Res. 52: 593-598, 2003). The test compounds were pre-incubated with PBMC (0.5 million/incubation well) for 15 minutes at 37° C. and then stimulated with Lipopolysaccharide (Escherichia coli: B4; 1 μg/ml) for 18 hours at 37° C. in 5% CO2. The levels of TNF-α in the cell culture medium were estimated using enzyme-linked immunosorbent assay performed in a 96 well format as per the procedure of the manufacturer (Cayman Chemical, Ann Arbor, USA).
# [2] = system: IL-6; test: In vitro measurement of IL-6 in human PBMC (LPS stimulated); type: cell-based; details: for inhibition at 1 µM: read-out: IL-6 Inhibition (%) Conc. (1 μM); for inhibition at 10 µM: read-out: IL-6 Inhibition (%) Conc. (10 μM)
# Experimental: In Vitro Measurement of Interleukin-6(IL-6)
# This assay determins the effect of test compounds on the production of IL-6 in human PBMC (Physiol. Res. 52: 593-598, 2003). Compounds were tested for their ability to inhibit the activity of IL-6 in human PBMC. PBMC were isolated from blood using BD Vacutainer CPT™ Cell preparation tube (BD Bio Science) and suspended in RPMI medium. The test compounds were pre-incubated with PBMC (0.5 million/incubation well) for 15 minutes at 37° C. and then stimulated with Lipopolysaccharide (Escherichia coli: B4; 1 μg/ml) for 18 hours at 37° C. in 5% CO2. The levels of IL-6 in cell culture medium were estimated using enzyme-linked immunosorbent assay performed in a 96 well format as per the procedure of the manufacturer (Cayman Chemical, Ann Arbor, USA).
# [3] = target: purified recombinant COX-1 (Homo sapiens, UniProt P23219); test: COX-1 enzyme based assay; type: biochemical; details: NA = No activity, read-out: % Inhibition in rEnzyme Assay COX-1
# Sequence of purified recombinant COX-1 (P23219 24-599): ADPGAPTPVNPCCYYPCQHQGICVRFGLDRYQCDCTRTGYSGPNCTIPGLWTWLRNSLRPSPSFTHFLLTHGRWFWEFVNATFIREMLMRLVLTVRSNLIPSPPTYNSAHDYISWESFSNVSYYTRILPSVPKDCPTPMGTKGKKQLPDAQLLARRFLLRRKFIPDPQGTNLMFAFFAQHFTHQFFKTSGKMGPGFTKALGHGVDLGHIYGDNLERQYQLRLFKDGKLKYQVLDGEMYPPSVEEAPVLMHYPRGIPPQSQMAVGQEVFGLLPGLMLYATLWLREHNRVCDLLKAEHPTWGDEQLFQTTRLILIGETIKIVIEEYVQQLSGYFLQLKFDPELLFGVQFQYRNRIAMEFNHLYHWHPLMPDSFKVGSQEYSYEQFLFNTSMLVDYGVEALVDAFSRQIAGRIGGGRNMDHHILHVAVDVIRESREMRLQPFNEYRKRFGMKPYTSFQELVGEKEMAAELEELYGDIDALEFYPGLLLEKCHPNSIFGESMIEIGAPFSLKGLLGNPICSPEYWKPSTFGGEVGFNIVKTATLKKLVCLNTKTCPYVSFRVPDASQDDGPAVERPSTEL
# Experimental: (§1) COX-1 and COX-2 Enzyme Based Assay
# (§2) COX-1 and COX-2 enzyme based assays were carried out to check the inhibitory potential of the test compounds on the production of prostaglandin by purified recombinant COX-1/COX-2 enzyme (Proc. Nat. Acad. Sci. USA, 88, 2692-2696, 1991; J. Clin. Immunoassay 15, 116-120, 1992) In this assay, the potential of the test compound to inhibit the production of prostaglandin either by COX-1 or COX-2 from arachidonic acid (substrate) was measured. This was an enzyme based in-vitro assay to evaluate selective COX inhibition with good reproducibility.
# (§3) Arachidonic acid was converted to PGH2 (Intermediate product) by COX1/COX-2 in the presence or absence of the test compound. The reaction was carried out at 37° C. and after 2 minutes it was stopped by adding 1M HCl. Intermediate product PGH2 was converted to a stable prostanoid product PGF2αby SnCl2 reduction. The amount of PGF2α, produced in the reaction was inversely proportional to the COX inhibitory potential of the test compound. The prostanoid product was quantified via enzyme immunoassay (EIA) using a broadly specific antibody that binds to all the major forms of prostaglandin, using Cayman ELISA kit as per the procedure outlined by the manufacturer (Cayman Chemicals, Ann Arbor, USA).
# [4] = target: T1, purified recombinant COX-2 (Homo sapiens, UniProt P35354); test: COX-2 enzyme based assay; type: biochemical; details: NA = No activity, read-out: % Inhibition in rEnzyme Assay COX-2
# T1 sequence (P35354 18-604): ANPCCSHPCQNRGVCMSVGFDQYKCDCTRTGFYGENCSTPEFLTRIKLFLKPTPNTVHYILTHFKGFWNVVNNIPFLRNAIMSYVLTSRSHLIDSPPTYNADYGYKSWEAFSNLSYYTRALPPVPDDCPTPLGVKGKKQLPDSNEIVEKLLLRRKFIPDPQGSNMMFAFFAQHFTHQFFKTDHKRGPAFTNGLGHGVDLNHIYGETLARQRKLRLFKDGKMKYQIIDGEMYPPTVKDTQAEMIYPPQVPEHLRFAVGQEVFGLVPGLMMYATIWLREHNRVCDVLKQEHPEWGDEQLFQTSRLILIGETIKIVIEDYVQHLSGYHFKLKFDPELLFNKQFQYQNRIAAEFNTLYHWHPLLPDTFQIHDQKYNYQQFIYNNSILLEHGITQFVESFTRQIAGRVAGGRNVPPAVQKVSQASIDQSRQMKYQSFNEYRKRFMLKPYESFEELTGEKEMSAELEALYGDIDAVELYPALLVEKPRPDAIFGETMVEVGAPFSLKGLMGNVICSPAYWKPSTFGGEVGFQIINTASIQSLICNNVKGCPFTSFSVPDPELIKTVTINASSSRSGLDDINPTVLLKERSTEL
# Experimental: as §1, §2, §3
Structure (SMILES),inhibition at 1 µM [1] [%],inhibition at 10 µM [1] [%],also measured
"NNc1nc(C(F)(F)F)nc(-c2cccnc2)c1-c1ccccc1 [Example 11, 4-Hydrazino-5-phenyl-6-pyridin-3-yl-2-(trifluoromethyl)pyrimidine]",12.7,50.7,–
"NNc1nc(C(F)(F)F)nc(-c2ccncc2)c1-c1ccccc1 [Example 12, 4-Hydrazino-5-phenyl-6-pyridin-4-yl-2-(trifluoromethyl)pyrimidine]",34.8,78.4,–
"NNc1nc(C(F)(F)F)nc(-c2ccncc2)c1-c1ccc(F)cc1 [Example 13, 5-(4-Fluorophenyl)-4-hydrazino-6-pyridin-4-yl-2-(trifluoromethyl)pyrimidine]",25.8,35.3,–
"CS(=O)(=O)c1ccc(-c2nc(C(F)(F)F)nc(OS(=O)(=O)CCCCl)c2-c2ccccc2)cc1 [Example 19, 6-[4-(Methylsulfonyl)phenyl]-5-phenyl-2-(trifluoromethyl)pyrimidin-4-yl-3-chloropropane-1-sulfonate]",–,–,inhibition at 1 µM [2]: 27.9%; inhibition at 10 µM [2]: 41.9%
"CS(=O)(=O)c1ccc(-c2nc(C(F)(F)F)nc(OS(=O)(=O)c3ccc(OC(F)(F)F)cc3)c2-c2ccccc2)cc1 [Example 24, 6-[4-(Methylsulfonyl)phenyl]-5-phenyl-2-(trifluoromethyl)pyrimidin-4-yl-4-trifluoromethoxybenzenesulfonate]",53.9,32.9,–
"CS(=O)(=O)c1ccc(-c2nc(C(F)(F)F)nc(OS(=O)(=O)c3cccs3)c2-c2ccccc2)cc1 [Example 25, 6-[4-(Methylsulfonyl)phenyl]-5-phenyl-2-(trifluoromethyl)pyrimidin-4-yl thiophene-2-sulfonate]",38.8,94,–
"CS(=O)(=O)c1ccc(-c2nc(C(F)(F)F)nc(OS(=O)(=O)c3ccc(F)cc3)c2-c2ccccc2)cc1 [Example 26, 6-[4-(Methylsulfonyl)phenyl]-5-phenyl-2-(trifluoromethyl)pyrimidin-4-yl-4-fluorobenzenesulfonate]",32.7,50.8,–
"CS(=O)(=O)c1ccc(-c2nc(C(F)(F)F)nc(OS(=O)(=O)c3ccccc3F)c2-c2ccccc2)cc1 [Example 27, 6-[4-(Methylsulfonyl)phenyl]-5-phenyl-2-(trifluoromethyl)pyrimidin-4-yl-2-fluorobenzenesulfonate]",43.5,51.9,–
"NS(=O)(=O)c1ccc(-c2nc(C(F)(F)F)nc(N3CCNCC3)c2-c2ccc(F)cc2)cc1 [Example 31, 4-[5-(4-Fluorophenyl)-6-piperazin-1-yl-2-(trifluoromethyl)pyrimidin-4-yl]benzenesulfonamide]",37.4,62.5,–
"CNS(=O)(=O)c1ccc(-c2c(-c3ccc(S(C)(=O)=O)cc3)nc(C(F)(F)F)nc2N2CCOCC2)cc1 [Example 34, 4-{4-(Morpholin-4yl)-6-[4-(methylsulfonyl)phenyl]-2-(trifluoromethyl)pyrimidin-5-yl}-N-methylbenzenesulfonamide]",–,80.9,–
"Cc1cnc(C(=O)N2CCN(c3nc(C(F)(F)F)nc(-c4ccc(S(C)(=O)=O)cc4)c3-c3ccccc3)CC2)cn1 [Example 36, 4-[4-(Methylsulfonyl)phenyl]-6-{4-[(5-methylpyrazin-2-yl)carbonyl]piperazin-1-yl}-5-phenyl-2-(trifluoromethyl)pyrimidine]",51.3,26.9,–
NS(=O)(=O)c1cccc(-c2c(-c3ccccc3)nc(C(F)(F)F)nc2N2CCN(c3ccccn3)CC2)c1 [Example 58],–,–,inhibition at 1 µM ([3]; 1 μM): 10.2%; inhibition at 10 µM ([3]; 10 μM): 9.59%; inhibition at 1 µM ([4]; 1 μM): 11.2%; inhibition at 10 µM ([4]; 10 μM): 2.62%
"CCOC(=O)C1CCN(c2nc(C(F)(F)F)nc(-c3ccc(F)cc3)c2-c2cccc(S(N)(=O)=O)c2)CC1 [Example 59, Ethyl-1-[5-(3-aminosulfonylphenyl)-6-(4-fluorophenyl)-2-(trifluoromethyl)pyrimidin-4-yl]piperidine-4-carboxylate]",–,–,inhibition at 1 µM [2]: 26.1%; inhibition at 10 µM [2]: 36.8%
"CCOC(=O)C1CCN(c2nc(C(F)(F)F)nc(-c3ccccc3)c2-c2cccc(S(N)(=O)=O)c2)CC1 [Example 61, Ethyl 1-[6-phenyl-5-(3-aminosulfonylphenyl)1-2-(trifluoromethyl)pyrimidin-4-yl]piperidine-4-carboxylate]",–,–,inhibition at 1 µM [2]: 24.5%; inhibition at 10 µM [2]: 54.5%
"COc1cc(N2CCN(c3nc(C(F)(F)F)nc(-c4ccc(F)cc4)c3-c3cccc(S(N)(=O)=O)c3)CC2)nc(OC)n1 [Example 66, 4-[4-(2,6-Dimethoxypyrimidin-4-yl)piperazin-1-yl]-5-(3-aminosulfonylphenyl)-6-(4-fluorophenyl)-2-(trifluoromethyl)pyrimidine]",57.9,80.7,–
"CS(=O)(=O)N1CCN(c2nc(C(F)(F)F)nc(-c3ccc(F)cc3)c2-c2cccc(S(N)(=O)=O)c2)CC1 [Example 78, 3-[4-[4-(Methylsulfonyl)piperazin-1-yl]-6-(4-fluorophenyl)-2-(trifluoromethyl)pyrmidin-5-yl]benzenesulfonamide]",–,–,inhibition at 1 µM [2]: 22.3%; inhibition at 10 µM [2]: 25.3%
"NS(=O)(=O)c1cccc(-c2c(-c3ccccc3)nc(C(F)(F)F)nc2N2CCN(c3ccc([N+](=O)[O-])cn3)CC2)c1 [Example 117, 3-[6-{4-[5-(Nitro)pyridin-2-yl]piperazin-1-yl}-4-phenyl-2-(trifluoromethyl)pyrimidin-5-yl]benzenesulfonamide]",69.7,86.5,–
"CC(=O)Nc1ccc(N2CCN(c3nc(C(F)(F)F)nc(-c4ccc(S(C)(=O)=O)cc4)c3-c3ccc(F)cc3)CC2)nc1 [Example 119, 4-[5-(Acetylamino)pyridin-2-yl]piperazin-1-yl-5-(4-fluorophenyl)-6-[4-(methylsulfonyl)phenyl]-2-(trifluoromethyl)pyrimidine]",88.9,91.5,–
